Test results published in patent US20240208950A1, “COMPOSITIONS AND METHODS FOR TREATMENT OF CERVICAL AND OVARIAN CANCER” (SOUTH DAKOTA BOARD OF REGENTS, priority 2021, published 2024).

Tests used:
[1] = tested on: SiHa cells; assay: Colony formation assay, SiHa; format: cell-based, human; settings: SiHa, 2.5, 5 and 7.5 μM
Method: FIGS. 5A and 5B show representative colony images of CaSki cells (FIG. 5A) and SiHa cells (FIG. 5B) treated with various concentrations of ORM-Br ranging from […]. FIGS. 5C and 5D represent the quantification of colony formation in CaSki cells (FIG. 5C) and SiHa cells (FIG. 5D) treated with various concentrations of ORM-Br ranging from 0 to 7.5 μM.
To determine the effect of Br-ORM on clonogenic potential of CaSki and SiHa cells, a colony formation assay was performed. In brief, 500 cells were seeded per well in a 6-well plate and allowed to stand for the next three days. The cells were treated with Br-ORM with different concentrations (2.5, 5, and 7.5 μM) for seven days and then followed by normal growth media. […] Colonies were fixed in methanol, stained with haematoxylin, and counted using UVP 810 software.
FIG. 13. […] Cell viability was assessed by MTS assay. […] Bar graphs indicating quantification of colony formation in CaSki (i), and SiHa (ii) cells of cervical cancer with respect to vehicle control. […] Briefly, cervical cancer cells were treated with Br-ORM (10 μM) for 24 hours and the apoptosis inducing effect of Br-ORM was analyzed by Annexin V staining. […] The equal loading of protein in each lane was determined by probing the blots with β-actin antibody (FIG. 13F). […] Br-ORM arrests cell cycle in G1/S phase as determined by flow cytometry. […]

[2] = tested on: EMT markers and MMPs in CaSki cells; assay: Western blot for EMT markers and MMPs, CaSki; format: cell-based, human; settings: 24 hours
Method: In a further example, cell lysates and western blot analysis was conducted for EMT markers and MMPs. […] In this example, about 70% of confluent SiHa and CaSki were treated with ORM-Br ([…]) for 24 hours. Cell lysates were prepared, and western blot analysis were conducted for EMT markers and MMPs analysis. The effect of ORM-Br on protein levels of cell-cycle regulatory proteins (cyclin E1 and p27) in both CaSki and SiHa cell lines are shown.
The effect of Br-ORM on protein expression in cervical cancer cells were determined by Western blot analysis by using specific antibodies.
Epithelial mesenchymal transition (EMT) is the basic characteristic of cancer cells in which epithelial cells undergo morphologic and molecular changes that transform the cells to mesenchymal, highly metastatic (invasive and motile), and drug-resistant phenotypes. Thus, targeting EMT may reduce the invasive phenotypes of a cancer cell and have significant advantage to overcome drug resistance. It has been reported that β-catenin is involved in invasion and metastasis via inducing EMT in various tumor cells. The effect of Br-ORM treatment on various EMT markers in cervical cancer cells was evaluated. […] The effect of Br-ORM on expression of EMT markers in cervical cancer cells compared to untreated group by use of qPCR analysis was determined. […] Expression of E-cadherin in cervical cancer cells treated with Br-ORM (10 μM) for 18 hours was also determined by immunofluorescence and confocal microscopy. Images were captured under 60× magnification and representative images are presented (FIG. 14G).
FIG. 14. Br-ORM decreases migration, invasion and attenuates EMT in cervical cancer cells. Effect of Br-ORM on cell migration of cervical cancer cells as determined by agarose bead (FIG. 14A), scratch wound healing (FIG. 14B), and Boyden chamber assay (FIG. 14C). AB denotes agarose bead while MC denotes migratory cells. Arrows indicate the distance of cervical cancer (CaSki and SiHa) cells migration in control and Br-ORM treated groups (FIG. 14A(i)-(ii)). […] Closure of wound was determined and photographed using phase contrast microscopy. […] Bar graph represent the quantification of migrated CaSki cells of control and Br-ORM treated groups (FIG. 14C(ii)). […] Effect of Br-ORM treatment on invasion of CaSki cells as determined by a commercially available kit (BD Biosciences) as described in materials and methods. In brief, 24 hours post-treatment of Br-ORM, invaded cells were fixed, stained and counted. […] Bar graph represent the quantification of invaded CaSki cells of control and Br-ORM treated groups (FIG. 14D(ii)). […] Effect of Br-ORM on E-cadherin expression in cervical cancer cells as determined by confocal microscopy in control and Br-ORM treated cells after 18 hours.

SMILES: COc1ccc2c(c1)OC(C)(C)C(c1ccc(Br)cc1)C2c1ccc(OCCN2CCCC2)cc1 (stereo not drawn) [ORM-Br]
- colony formation (clonogenic potential) [1]: suppresses the clonogenic potential
- colony formation (clonogenic potential) ([1]; listed as Br-ORM): significantly decreased the number of colonies
- EMT associated markers (N-cadherin, vimentin and snail) expression [2]: inhibits the EMT associated markers
- expression of E-cadherin [2]: induced the expression of E-cadherin
- expression of MMP2 and MMP9 [2]: inhibited the expression of MMP2 and MMP9
- EMT associated markers (N-cadherin, vimentin and snail) expression ([2]; listed as Br-ORM): marked inhibition
